Results reported in patent US20180311342A1, “IMMUNOSTIMULATING AGENT” (AJINOMOTO CO., INC., priority 2017, published 2018).
Where a name gives a salt, the structure may show the parent alone.

Tests used:
[1] = system: anti-OVA-specific IgG1 subclass antibody; assay: Adjuvant activity test: anti-OVA-specific IgG1 subclass antibody in serum of OVA-immunized mice (ELISA); type: in vivo, BALB/c mice; settings: after secondary immunization, serum 2 weeks later; OVA 5 μg + compound 0.256 μmol in 5% αCD-added saline (Addavax mixed with saline at 1:1), dorsal-subcutaneous; compared to OVA single administration group
Protocol: (§1) 8-Week-old female BALB/c mice were divided into groups (N=6), and each group was primarily immunized by dorsal-subcutaneous administration of (1) ovalbumin (OVA) (5 μg) dissolved in saline as an antigen (OVA single administration group), (2) OVA 5 μg and Addavax™ (mixed with saline at 1:1) dissolved in saline (Addavax™ administration group) as positive control adjuvant, (3) OVA 5 μg and SZ137 0.256 μmol dissolved or dispersed in 5% α-cyclodextrin (hereinafter to be simply referred to as αCD)-added saline (SZ137 administration group), (4) OVA (5 μg) and SZ138 (0.256 μmol) dissolved or dispersed in 5% αCD-added saline (SZ138 administration group), (5) OVA (5 μg) and SZ142 (0.256 μmol) dissolved or dispersed in 5% αCD-added saline (SZ142 administration group), (6) OVA (5 μg) and SZ144 (0.256 μmol) dissolved or dispersed in 5% αCD-added saline (SZ144 administration group), (7) OVA (5 μg) and SZ145 (0.256 μmol) dissolved or dispersed in 5% αCD-added saline (SZ145 administration group), (8) OVA (5 μg) and SZ146 (0.256 μmol) dissolved or dispersed in 5% αCD-added saline (SZ146 administration group), (9) OVA (5 μg) and SZ147 (0.256 μmol) dissolved or dispersed in 5% αCD-added saline (SZ147 administration group), (10) OVA (5 μg) and SZ148 (0.256 μmol) dissolved or dispersed in 5% αCD-added saline (SZ148 administration group), each per mouse. Two week later, the secondary immunization was carried out by dorsal-subcutaneous administration of solutions or dispersions similar to those of the above-mentioned (1)-(10) again. Two weeks from the secondary immunization, the whole blood was extracted under anesthesia, and the obtained serum sample was measured for anti-OVA-specific IgG1 subclass antibody, anti-OVA-specific IgG2a subclass antibody, and anti-OVA-specific IgE antibody.
(§2) The measurement method of the anti-OVA-specific IgG1 subclass antibody and anti-OVA-specific IgG2a subclass antibody in Experimental Example 1 and the following Experimental Examples 2-10 is as follows.
(§3) To a 96 well plate was added 5 μg/ml OVA at 100 µl/well, and the mixture was incubated at 4° C. overnight. After incubation, the mixture was washed three times with 200 μl of PBS-T (PBS (phosphate buffered saline)+0.05% (v/v) Tween 20) per well, and blocked with 100 μl of 5% FCS (fetal calf serum)/PBS solution per well at room temperature for 1-2 hr. Thereafter, the mixture was washed three times with PBS-T (200 μl/well), a diluted serum sample (100 l/well) or the same amount of 5% FCS/PBS solution as a control was added, and the mixture was incubated at 37° C. for 1 hr. To calculate concentration of the antibody, the standard of an anti-OVA-specific IgG1 subclass antibody diluted with 2% FCS/PBS solution was added at 100 ng/ml, 50 ng/ml, 25 ng/ml, 12.5 ng/ml, 6.25 ng/ml, 3.125 ng/ml, 1.56 ng/ml, 0.781 ng/ml, 0.391 ng/ml, 0.195 ng/ml, 0.098 ng/ml, 0 ng/ml, per 1 well. When an anti-OVA-specific IgG2a subclass antibody was measured, the standard of an anti-OVA-specific IgG2a subclass antibody was added at 50 ng/ml, 25 ng/ml, 12.5 ng/ml, 6.25 ng/ml, 3.125 ng/ml, 1.56 ng/ml, 0.781 ng/ml, 0.391 ng/ml, 0.195 ng/ml, 0.098 ng/ml, 0.049 ng/ml, 0 ng/ml, per 1 well. Thereafter, similar to the samples, the mixture was washed five times with PBS-T (200 μl/well), a diluted biotinylated anti-mouse IgG1 antibody and IgG2a antibody were added (100 μl/well), and the mixture was incubated at 37° C. for 45 min. Thereafter, the mixture was washed five times with PBS-T (200 μl/well), a diluted anti-biotin-HRP antibody was added (100 μl/well), and the mixture was incubated at 37° C. for another 30 min. Thereafter, the mixture was washed five times with PBS-T (200 μl/well), TMB substrate solution was added (100 μl/well), and the mixture was incubated at room temperature for 10-15 min. Thereafter, a reaction quenching liquid (2N sulfuric acid solution) was added (50 l/well) to discontinue a color developing reaction, and the absorbance (OD Value=450 nm) was measured by a microplate reader. […]

[2] = system: anti-OVA-specific IgG2a subclass antibody; assay: Adjuvant activity test: anti-OVA-specific IgG2a subclass antibody in serum of OVA-immunized mice (ELISA); type: in vivo, BALB/c mice; settings: after secondary immunization, serum 2 weeks later; OVA 5 μg + compound 0.256 μmol in 5% αCD-added saline (Addavax mixed with saline at 1:1), dorsal-subcutaneous; compared to OVA single administration group
Protocol: as §1, §2, §3

SMILES | anti-OVA-specific IgG1 subclass antibody production [1] | anti-OVA-specific IgG2a subclass antibody production [2]
CCCCCCCCCCCCCCCC(=O)N[C@H](CCCCN)C(=O)NCCCCCCCCCCCC.Cl [SZ194, N-[(1R)-5-amino-1-(dodecylcarbamoyl)pentyl]hexadecanamide hydrochloride] | showed a tendency to increase | showed a tendency to increase
CCCCCCCCCCCCCCCCCC(=O)N[C@@H](CC(C)C)C(=O)NCCCCCCCC [SZ196, N-[(1S)-3-methyl-1-(octylcarbamoyl)butyl]octadecanamide] | significant enhancement | tended to increase
CCCCCCCCCCCCCCCCCCCCCC(=O)N[C@@H](CCCCN)C(=O)NCCCCCCCCCCCC.Cl [SZ160, N-[(1S)-5-amino-1-(dodecylcarbamoyl)pentyl]docosanamide hydrochloride] | showed a tendency to increase | showed a tendency to increase
CCCCCCCCCCCCNC(=O)[C@H](CCCNC(=N)N)NC(=O)OCCCCCCCCCCCC.Cl [SZ187, dodecyl N-[(1S)-1-(dodecylcarbamoyl)-4-guanidino-butyl]carbamate hydrochloride] | showed a tendency to increase | significant enhancement
CCCCCCCCCCCCCCCCNC(=O)NCCCCNC(=N)N.Cl [SZ190, 1-(4-guanidinobutyl)-3-hexadecyl-urea hydrochloride] | showed a tendency to increase | showed a tendency to increase
CCCCCCCCCCCCCCCCNC(=O)N[C@@H](CCCCN)C(=O)NCCCCCCCCCCCC.Cl [SZ214, (2S)-6-amino-N-dodecyl-2-(hexadecylcarbamoylamino)hexanamide hydrochloride] | significant enhancement | significant enhancement
CCCCCCCCCCCCCCCCCCCCCC(=O)N[C@@H](CCCNC(=N)N)C(=O)NCCCCCCC.Cl [SZ163, N-[(1S)-4-guanidino-1-(heptylcarbamoyl)butyl]docosanamide hydrochloride] | tended to increase | tended to increase
CCCCCCCCCCCCCCCC(=O)N[C@@H](CCCNC(=N)N)C(=O)NCCCCCCCC.Cl [SZ181, N-[(1S)-4-guanidino-1-(octylcarbamoyl)butyl]hexadecanamide hydrochloride] | showed a tendency to increase | showed a tendency to increase
CCCCCCCCCCCCCCCCCC(=O)N[C@@H](CC(C)C)C(=O)NCCCCCCCCCCCC [SZ195, N-[(1S)-1-(dodecylcarbamoyl)-3-methyl-butyl]octadecanamide] | tended to increase | tended to increase
CCCCCCCCCCCCCCCCCC(=O)N[C@@H](CCCNC(=N)N)C(=O)NCCCCCCCC.Cl [SZ182, N-[(1S)-4-guanidino-1-(octylcarbamoyl)butyl]octadecanamide hydrochloride] | showed a tendency to increase | showed a tendency to increase
CCCCCCCCCCCCCCCCNC(=O)N[C@@H](CCCCN)C(=O)NCCCCCCCC.Cl [SZ213, (2S)-6-amino-2-(hexadecylcarbamoylamino)-N-octyl-hexanamide hydrochloride] | significant enhancement | significant enhancement
CCCCCCCCCCCCNC(=O)[C@H](CCCNC(=N)N)N(CCCCCCC)CCCCCCC [SZ207, (2S)-2-(diheptylamino)-N-dodecyl-5-guanidino-pentanamide dihydrochloride] | significant enhancement | significant enhancement
CCCCCCCCCCCCCCCCNC(=O)N[C@H](CCCNC(=N)N)C(=O)NCCCCCCCCCCCC.Cl [SZ193, (2R)—N-dodecyl-5-guanidino-2-(hexadecylcarbamoylamino)pentanamide hydrochloride] | showed a tendency to increase | showed a tendency to increase
CCCCCCCCCCCCCCCCOC(=O)N[C@@H](CCCNC(=N)N)C(=O)NCCCCCCCC.Cl [SZ215, hexadecyl N-[(1S)-4-guanidino-1-(octylcarbamoyl)butyl]carbamate hydrochloride] | a tendency toward increase | significant enhancement
CCCCCCCCCCCCCCCCCCCCCC(=O)NCCc1ccncc1.Cl [SZ209, N-[2-(4-pyridyl)ethyl]docosanamide hydrochloride] | tended to increase | tended to increase
CCCCCCCCCCCCCCCCCCCCCC(=O)N[C@@H](CCCCNC(=N)N)C(=O)NCCCCCCCCCCCC.Cl [SZ166, N-[(1S)-1-(dodecylcarbamoyl)-5-guanidino-pentyl]docosanamide hydrochloride] | tended to increase | tended to increase
CCCCCCCCCCCCNC(=O)N[C@@H](CCCNC(=N)N)C(=O)NCCCCCCCCCCCC.Cl [SZ212, (2S)—N-dodecyl-2-(dodecylcarbamoylamino)-5-guanidino-pentanamide hydrochloride] | significant enhancement | significant enhancement
CCCCCCCCCCCCCCCCOC(=O)N[C@@H](CC(C)C)C(=O)NCCCCCCCC [SZ203, hexadecyl N-[(1S)-3-methyl-1-(octylcarbamoyl)butyl]carbamate] | tended to increase | tended to increase
CCCCCCCCCCCCCCCCCCCCCC(=O)N[C@@H](CCCCNC(=N)N)C(=O)NCCCCCC.Cl [SZ170, N-[(1S)-5-guanidino-1-(hexylcarbamoyl)pentyl]docosanamide hydrochloride] | tended to increase | tended to increase
CCCCCCCCCCCCCCCCOC(=O)N[C@@H](CCCCN)C(=O)NCCCCCCCCCCCC.Cl [SZ189, hexadecyl N-[(1S)-5-amino-1-(dodecylcarbamoyl)pentyl]carbamate hydrochloride] | significant enhancement | significant enhancement
CCCCCCCCCCCCCCCCCCCCCC(=O)NCCC(=O)NCCCCCCCCCCCC [SZ147, N-[3-(dodecylamino)-3-oxo-propyl]docosanamide] | showed a tendency to increase | showed a tendency to increase
